According to PMC3946276 (European journal of pharmacology, 2013):

Target: T1, G-protein coupled receptor 30 (GPR30) (Rattus norvegicus, UniProt O08878)
T1 sequence (O08878 1-375): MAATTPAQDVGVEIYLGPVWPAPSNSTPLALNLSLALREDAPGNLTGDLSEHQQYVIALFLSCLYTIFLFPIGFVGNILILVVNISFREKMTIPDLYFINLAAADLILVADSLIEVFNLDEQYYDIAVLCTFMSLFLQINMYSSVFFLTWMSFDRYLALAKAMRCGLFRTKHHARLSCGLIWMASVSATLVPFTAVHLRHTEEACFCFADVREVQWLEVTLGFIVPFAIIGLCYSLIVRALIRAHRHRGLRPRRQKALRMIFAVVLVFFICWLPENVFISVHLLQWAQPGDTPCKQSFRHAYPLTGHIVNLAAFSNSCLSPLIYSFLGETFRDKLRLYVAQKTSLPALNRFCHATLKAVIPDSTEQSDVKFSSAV
Assay: [3H]2ME2 saturation radioligand binding on WB cell membranes

Q: For COc1cc2c(cc1O)CC[C@@H]1[C@@H]2CC[C@]2(C)[C@@H](O)CC[C@@H]12 [2ME2, 2-methoxyestradiol], which Kd is on record?
A: The Kd was ~10.1 nM.
